In patent US9359346B2, “Benzamide derivative and use thereof” (VIVOZON, INC., priority 2011, dated 2016):
Where two headings read alike, the source gives them in different places.

How the values were obtained:
[1] = biological target: T1, GlyT2 (Rattus norvegicus, UniProt P58295); experiment: FLIPR membrane potential assay for GlyT2 target activity (T-rex-293-rGlyT2 cells); type: cell-based; conditions: read-out: GlyT2 % inhibition
T1 construct: expressed in transfected cells
T1 sequence (P58295 1-799): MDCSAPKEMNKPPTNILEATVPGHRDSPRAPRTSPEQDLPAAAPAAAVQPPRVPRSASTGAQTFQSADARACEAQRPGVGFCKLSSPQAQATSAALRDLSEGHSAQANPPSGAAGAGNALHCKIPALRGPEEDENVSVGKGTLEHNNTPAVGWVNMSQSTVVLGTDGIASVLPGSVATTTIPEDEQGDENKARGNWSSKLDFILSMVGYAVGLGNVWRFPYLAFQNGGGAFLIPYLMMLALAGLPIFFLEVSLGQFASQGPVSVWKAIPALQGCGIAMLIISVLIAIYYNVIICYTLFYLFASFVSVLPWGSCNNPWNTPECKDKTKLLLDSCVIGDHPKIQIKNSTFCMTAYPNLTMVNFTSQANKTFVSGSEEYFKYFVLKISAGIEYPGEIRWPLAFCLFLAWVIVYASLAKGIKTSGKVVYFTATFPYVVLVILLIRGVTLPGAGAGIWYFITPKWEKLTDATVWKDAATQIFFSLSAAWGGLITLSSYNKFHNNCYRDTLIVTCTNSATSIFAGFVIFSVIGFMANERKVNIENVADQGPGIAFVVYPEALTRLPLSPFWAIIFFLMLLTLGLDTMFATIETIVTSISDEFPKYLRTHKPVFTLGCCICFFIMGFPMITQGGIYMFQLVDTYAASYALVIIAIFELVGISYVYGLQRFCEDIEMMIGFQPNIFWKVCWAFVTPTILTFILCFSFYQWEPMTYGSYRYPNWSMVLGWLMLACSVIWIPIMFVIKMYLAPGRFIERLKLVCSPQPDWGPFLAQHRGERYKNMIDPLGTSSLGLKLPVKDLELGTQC
Protocol: GlyT2 (Glycine transporter type 2) is an electrogenic carrier associated with Na^+/Cl^− ion transportation, primarily distributed around the spinal cord part, and has an important role in the transfer of a pain signal in the spinal cord.
In order to identify the fact that the novel compound of the present invention has GlyT2 targeting activity, a membrane potential assay was performed. FLIPR Membrane Potential Assay is used to measure ion channel modulation caused by an increase or decrease in fluorescence signal due to variations of cellular membrane potential.
First, pcDNA4/TO vector encoding GlyT2 of the rat in HEK293 cell was transfected to prepare a stable recombinant cell line, i.e., T-rex-293-rGlyT2. A […] (Greiner #655090) coated with poly-D-lysine was prepared, and the above recombinant cells (T-rex-293-rGlyT2) were seeded at 3.2×10^4/well therein using a medium containing 15 μg/ml of tetracycline. After this, incubation was conducted at 37° C. for 48 hours under 5% CO2 conditions to express GlyT2. 10 ml of assay buffer (1×HBSS, 20 mM HEPES, pH 7.4) was added to a blue dye solution and sufficiently dissolved therein to prepare a membrane potential dye solution. After removing the medium from the well showing GlyT2 expression, the membrane potential dye solution was added to the well in an amount of 100 μl/well and incubated for 20 minutes.
According to the FLIPR Membrane Potential Assay kit's protocol, SoftMax Pro Software of FlexStation 3 software (Molecular Devices, US) was set up. An extent of GlyT2 expression was determined such that the extent of cellular membrane depolarization relative to an administered amount of glycine during glycine treatment is indicated in relative fluorescence units (RFU), and RFU (Max-Min) is calculated by subtracting the minimum value from the maximum value of RFU. After firstly treating 10 uM of the novel compound according to the present invention, glycine was treated and RFU (Max-Min) for glycine administration was determined. Then, with the determined result, the extent of depolarization inhibition (% inhibition) was assessed for each compound, compared to a positive control.
The positive control used herein was ORG25543 (500 nM) having strong inhibitory efficacy specific to GlyT2.
For GlyT2 inhibitory efficacy, the efficacy of the compound ORG25543 (500 nM) was defined as 100%. Similarly, for 5HT2A inhibitory efficacy, the efficacy of MDL11939 (100 nM) was defined as 100%. Therefore, the target inhibitory efficacy of each compound was indicated in a relative value compared to the above defined efficacy.

[2] = biological target: 5HT2A (Homo sapiens, UniProt P28223); experiment: FLIPR calcium assay for 5HT2A target activity (transfected HEK293 cells); type: cell-based
[3] = system: neuropathic pain model (Chung model); experiment: Neuropathic pain model (Chung model, SNL), paw withdrawal threshold; type: in vivo, rat; conditions: for pain suppression efficacy, antagonist alone: single administration, ORG-25543 10 or 20 mg/kg, FIG. 25(a)
[4] = system: formalin model; experiment: Formalin pain model, licking and shaking; type: in vivo, rat; conditions: for pain behavior (licking and shaking) induced by formalin: 12.5, 25 and 50 mg/kg, 5% formalin i.pl., FIGS. 23 and 24; for pain relieving effect, antagonist alone: single administration, FIG. 26(a)
[5] = system: serotonin-derived itching; experiment: Itching model, serotonin-derived itching; type: in vivo, rat; conditions: 50 mg/kg s.c.; serotonin 25 μg/50 μl intradermal; vs naloxone 5 mg/kg intraperitoneal
[6] = system: poly-L-arginine-derived itching; experiment: Itching model, poly-L-arginine-derived itching; type: in vivo, rat; conditions: 50 mg/kg s.c.; poly-L-arginine 200 μg/50 μl intradermal; vs naloxone 5 mg/kg intraperitoneal
[7] = 10 uM compound, then glycine, relative to ORG25543 (500 nM) defined as 100%
[8] = HEK293, read-out: 5HT2A % inhibition
[9] = subcutaneous 50 mg/kg or oral 100 mg/kg, gabapentin 55 to 70 mg/kg intraperitoneal, FIGS. 1 to 22
[10] = HEK293, 10 uM compound, then serotonin, relative to MDL11939 (100 nM) defined as 100%, read-out: 5HT2A % inhibition

Chain of 5HT2A (P28223 whole entry, species assumed): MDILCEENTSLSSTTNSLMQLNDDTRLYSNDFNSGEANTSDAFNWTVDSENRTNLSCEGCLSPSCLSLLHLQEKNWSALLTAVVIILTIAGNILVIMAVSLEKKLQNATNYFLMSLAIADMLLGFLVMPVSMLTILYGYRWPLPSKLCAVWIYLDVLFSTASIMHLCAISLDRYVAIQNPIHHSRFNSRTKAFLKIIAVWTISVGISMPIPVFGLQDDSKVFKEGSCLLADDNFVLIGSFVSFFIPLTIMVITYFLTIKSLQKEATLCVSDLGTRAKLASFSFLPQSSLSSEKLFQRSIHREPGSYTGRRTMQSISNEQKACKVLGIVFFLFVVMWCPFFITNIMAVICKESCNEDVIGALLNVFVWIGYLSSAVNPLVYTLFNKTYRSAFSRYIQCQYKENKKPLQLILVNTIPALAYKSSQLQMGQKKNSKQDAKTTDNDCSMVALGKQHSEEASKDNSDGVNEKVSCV

With `CCCCOc1c(OC)cc(C(=O)NCC(c2ccc(OC)cc2)N(C)C)cc1OC` (centres unmarked) [VVZ-024] the inhibition at 10 µM [1, 7] was 96.7%, the inhibition at 10 µM [2, 8] was 70.5% and the “analgesic efficacy compared to GBP positive control” value [3, 9] was “analgesic efficacy substantially equal to 0 °C superior to GBP”.

For `CCCCOc1c(OC)cc(C(=O)NCC2(N(C)C)CCOCC2)cc1OC` [VVZ-005], the inhibition at 10 µM [1] was 101%, the inhibition at 10 µM [2, 8] was 61.2% and the “analgesic efficacy compared to GBP positive control” value ([3]; rat, in vivo) was “analgesic efficacy substantially equal to 0 °C superior to GBP”. For the same compound, the “pain behavior (licking and shaking) induced by formalin” value [4] was “suppressing pain behavior induced by formalin”, the “itching behavior (number and duration of scratching) induced by serotonin” value [5] was “suppressing itching behavior” and the “itching behavior (number and duration of scratching) induced by poly-L-arginine” value [6] was “suppressing itching behavior”.

With `COc1cc(C(=O)NCC2(N(C)C)CCCC2)cc(OC)c1OCc1ccccc1` [ORG-25543, reference compound] the “pain suppression efficacy, antagonist alone” value (from here on “pain suppression efficacy”) [3] was “did not show pain suppression efficacy”, the “pain suppression efficacy” value ([3]; listed as ORG2553) was “no or very little pain relieving effect” and the “pain relieving effect, antagonist alone” value [4] was “no or very little pain relieving effect”.

In the case of `CN(C)C1(CNC(=O)c2ccc(OCc3ccccc3)cc2)CCOCC1` [VVZ-038], the inhibition at 10 µM [1] is reported as 108%, the inhibition at 10 µM [2, 8] is reported as 96.1% and the “analgesic efficacy compared to GBP positive control” value [3, 9] is reported as “analgesic efficacy substantially equal to 0 °C superior to GBP”.

For `CCCCOc1c(OC)cc(C(=O)NCC2(N(C)CC)CCOCC2)cc1OC` [VVZ-041], the inhibition at 10 µM [1, 7] was 79.2%, the inhibition at 10 µM [2, 10] was 105% and the “analgesic efficacy compared to GBP positive control” value [3, 9] was “analgesic efficacy substantially equal to 0 °C superior to GBP”.

With `OC(c1ccccc1)C1CCN(CCc2ccccc2)CC1` (centres unmarked) [MDL 11,939, reference compound] the “pain suppression efficacy” value [3] was “no or very little pain relieving effect” and the “pain relieving effect, antagonist alone” value [4] was “no or very little pain relieving effect”.

For `CCCCOc1c(OC)cc(C(=O)NCC2(NC)CCOCC2)cc1OC` [VVZ-068], the inhibition at 10 µM [1, 7] was 105%, the inhibition at 10 µM [2, 10] was 69.1% and the “analgesic efficacy compared to GBP positive control” value [3, 9] was “analgesic efficacy substantially equal to 0 °C superior to GBP”. For the same compound, the “pain behavior (licking and shaking) induced by formalin” value [4] was “suppressing pain behavior induced by formalin”, the “itching behavior (number and duration of scratching) induced by serotonin” value [5] was “suppressing itching behavior” and the “itching behavior (number and duration of scratching) induced by poly-L-arginine” value [6] was “suppressing itching behavior”.
